Here are results for 17 compounds from patent US6469146B1, “Radiopharmaceutical products suitable for the selective labeling of lymphocytes, and their preparation” (Cis Bio International, priority 2000, dated 2002).

For one test, the system named is human blood. The test is described as follows: Labeling of blood cells: yield of cell labeling in whole blood. Conditions: 2 mCi (74 MBq) in 3 mL fresh human blood, 10 minutes, after washings. The test is classed as cell-based. As to the method:
(§1) The radiopharmaceuticals of table I (2 mCi; 74 MBq) are incubated in 3 mL of a fresh sample of human blood for 10 minutes under slow shaking. The blood composition depends upon each sample taken from healthy volunteers (average composition: 1.6±0.3.10^10 Red Globules (RG) and 2.2±0.3.10^7 White Globules (WG) with 1.2±0.3.10^7 Polymorphs (57±9%) and 0.7±0.3.10^7 Lymphocytes (35±4%)]. Non-bound radioactivity is removed by successive washings (2×10 mL of RPMI culture medium 1640) of 10 minutes at 600 g. The yield of cell labeling is determined in a CAPINTEC CRC 120 activimeter. Cell viability is controlled by the Trypan blue exclusion test.
(§2) The results obtained, namely the labeling yield (Yield) and the percentages of activity in the separated fractions are given in tables 3 to 5.

Another test concerns whole blood. The test is described as follows: Cell separation on whole blood (Polymorphprep gradient), activity in separated fractions. To be noted: for Cell separation on whole blood (activity %): Polymorphprep: fraction: Polymorphprep gradient; for Cell separation on whole blood (activity %): Erythrocytes: fraction: erythrocytes; for Cell separation on whole blood (activity %): Leukocytes: fraction: leukocytes; for Cell separation on whole blood (activity %): Medium: fraction: medium. The test is classed as cell-based, human. Also noted: tested at 2 mCi (74 MBq) in 3 mL blood. As to the method: as §1, §2
In a first experiment, a separation of the blood constituents is made on a double density Polymorphprep® gradient.
Whole blood from healthy volunteers is labeled with 2 mCi of [^99mTc(ArCS3)2(ArCS2)] following the method described above. The blood constituents are then separated by the Polymorphprep® double density gradient into two separate fractions: lymphocytes and polymorphs/erythrocytes. The whole blood, diluted in 2-3 mL RPMI, is initially delicately placed on the Polymorphprep® gradient and then centrifuged (300 g, 20 min, 37° C.). […] Counting is made on each fraction using a MAXM Y07 00 367 counter in order to confirm cell constitution.

As for `CCOc1ccc(C(=S)S[S][99Tc]([S]SC(=S)c2ccc(OCC)cc2)[S]C(=S)c2ccc(OCC)cc2)cc1` [Example 13, [^99mTc(4-EtOPhCS3)2(4-EtOPhCS2)]], in the test with human blood, the “Yield (±3%) of cell labeling” value was found to be 99%. In the test on whole blood, the “Cell separation on whole blood (activity %): Polymorphprep” value is on record as 1%, the “Cell separation on whole blood (activity %): Erythrocytes” value was 29% and the “Cell separation on whole blood (activity %): Leukocytes” value is 70%.
For `Fc1ccc(C(=S)S[S][99Tc]([S]SC(=S)c2ccc(F)cc2)[S]C(=S)c2ccc(F)cc2)cc1` [Example 19, [^99mTc(4-FPhCS3)2 (4-FPhCS2)]], the “Yield (±3%) of cell labeling” value in the test on human blood is 99%. For the same compound, in the test on whole blood, the “Cell separation on whole blood (activity %): Polymorphprep” value was determined as 4%, the “Cell separation on whole blood (activity %): Erythrocytes” value stood at 15%, the “Cell separation on whole blood (activity %): Leukocytes” value was 80% and the “Cell separation on whole blood (activity %): Medium” value amounted to 1%.
With `Cc1ccc(C(=S)S[S][99Tc]([S]SC(=S)c2ccc(C)cc2)[S]C(=S)c2ccc(C)cc2)cc1` [Example 5, [^99mTc(4-MePhCS3)2(4-MePhCS2)]], the “Yield (±3%) of cell labeling” value with human blood turned out to be 98%. In the test with whole blood, the “Cell separation on whole blood (activity %): Polymorphprep” value turned out to be 3%, the “Cell separation on whole blood (activity %): Erythrocytes” value amounted to 17%, the “Cell separation on whole blood (activity %): Leukocytes” value was 80% and the “Cell separation on whole blood (activity %): Medium” value is recorded as 0%.
On to `Cc1cc(C)c(C(=S)S[S][99Tc]([S]SC(=S)c2cc(C)c(C)cc2C)[S]C(=S)c2cc(C)c(C)cc2C)cc1C` [Example 22, [^99mTc(2,4,5-Me3PhCS3)2(2,4,5-Me3PhCS2)]], for which the “Yield (±3%) of cell labeling” value with human blood was found to be 95%. In the test with whole blood, the “Cell separation on whole blood (activity %): Polymorphprep” value is recorded as 2%, the “Cell separation on whole blood (activity %): Erythrocytes” value came to 20% and the “Cell separation on whole blood (activity %): Leukocytes” value was 78%.
With `CCCCc1ccc(C(=S)S[S][99Tc]([S]SC(=S)c2ccc(CCCC)cc2)[S]C(=S)c2ccc(CCCC)cc2)cc1` [Example 11, [^99mTc(4-nBuPhCS3)2(4-nBuPhCS2)]], in the test with human blood, the “Yield (±3%) of cell labeling” value is 97%. Also, in the test with whole blood, the “Cell separation on whole blood (activity %): Polymorphprep” value was 1%, the “Cell separation on whole blood (activity %): Erythrocytes” value turned out to be 53% and the “Cell separation on whole blood (activity %): Leukocytes” value came to 46%.
On to `S=C(CCc1ccccc1)S[S][99Tc]([S]SC(=S)CCc1ccccc1)[S]C(=S)CCc1ccccc1` [Example 29, [^99mTc(PhCH2CH2CS3)2(PhCH2CH2CS2)]], for which the “Yield (±3%) of cell labeling” value with human blood worked out at 43%. Besides, in the test with whole blood, the “Cell separation on whole blood (activity %): Polymorphprep” value was 6%, the “Cell separation on whole blood (activity %): Erythrocytes” value was 58%, the “Cell separation on whole blood (activity %): Leukocytes” value came out at 35% and the “Cell separation on whole blood (activity %): Medium” value was found to be 1%.
The like results for `S=C(S[S][99Tc]([S]SC(=S)c1cccc2ccccc12)[S]C(=S)c1cccc2ccccc12)c1cccc2ccccc12` [Example 23, [^99mTc(1-naphCS3)2(1-naphCS2)]] were, in that order, 71%, 5%, 46%, 43% and 6%.
For the compound `CCOc1ccc(C(=S)S[S][99Tc]([S]SC(=S)c2ccc(OCC)cc2)[S]C(=S)c2ccc(OCC)cc2)cc1` [Example 14, [^99mTc(4-EtOPhCS3)2(4-EtOPhCS2)]], the “Yield (±3%) of cell labeling” value in the test on human blood is 97%. In the test with whole blood, the “Cell separation on whole blood (activity %): Polymorphprep” value amounted to 3%, the “Cell separation on whole blood (activity %): Erythrocytes” value was determined as 22% and the “Cell separation on whole blood (activity %): Leukocytes” value is listed as 75%.
“[^99mTc(C6H12CS3)2CS2(C6H12CS2)] [Example 30]”: the “Yield (±3%) of cell labeling” value with human blood was determined as 97%. Further, in the test on whole blood, the “Cell separation on whole blood (activity %): Polymorphprep” value is reported as 10%, the “Cell separation on whole blood (activity %): Erythrocytes” value was found to be 13%, the “Cell separation on whole blood (activity %): Leukocytes” value is on record as 75% and the “Cell separation on whole blood (activity %): Medium” value is listed as 2%.
For the compound `Oc1ccc(C(=S)S[S][99Tc]([S]SC(=S)c2ccc(O)cc2)[S]C(=S)c2ccc(O)cc2)cc1` [Example 18, [^99mTc(4-OHPhCS3)2(4-OHPhCS2)]], the “Yield (±3%) of cell labeling” value with human blood was found to be 93%. In the test on whole blood, the “Cell separation on whole blood (activity %): Polymorphprep” value is 3%, the “Cell separation on whole blood (activity %): Erythrocytes” value is 7%, the “Cell separation on whole blood (activity %): Leukocytes” value turned out to be 89% and the “Cell separation on whole blood (activity %): Medium” value was found to be 1%.
Regarding `CCc1ccccc1C(=S)S[S][99Tc]([S]SC(=S)c1ccccc1CC)[S]C(=S)c1ccccc1CC` [Example 9, [^99mTc(2-EtPhCS3)2(2-EtPhCS2)]], the “Yield (±3%) of cell labeling” value in the test with human blood is 72%. Further, in the test on whole blood, the “Cell separation on whole blood (activity %): Polymorphprep” value turned out to be 2%, the “Cell separation on whole blood (activity %): Erythrocytes” value is 24%, the “Cell separation on whole blood (activity %): Leukocytes” value amounted to 72% and the “Cell separation on whole blood (activity %): Medium” value is listed as 2%.
In the case of `S=C(CCc1ccccc1)S[S][99Tc]([S]SC(=S)CCc1ccccc1)[S]C(=S)CCc1ccccc1` [Example 28, [^99mTc(PhCH2CH2CS3)2(PhCH2CH2CS2)]], the “Yield (±3%) of cell labeling” value with human blood came to 91%. Besides, in the test with whole blood, the “Cell separation on whole blood (activity %): Polymorphprep” value is 2%, the “Cell separation on whole blood (activity %): Erythrocytes” value is given as 16%, the “Cell separation on whole blood (activity %): Leukocytes” value turned out to be 80% and the “Cell separation on whole blood (activity %): Medium” value is listed as 2%.
As to `Fc1ccc(C(=S)S[S][99Tc]([S]SC(=S)c2ccc(F)cc2)[S]C(=S)c2ccc(F)cc2)cc1` [Example 20, [^99mTc(4-FPhCS3)2 (4-FPhCS2)]], the “Yield (±3%) of cell labeling” value with human blood worked out at 91%. Also, in the test with whole blood, the “Cell separation on whole blood (activity %): Polymorphprep” value is 4%, the “Cell separation on whole blood (activity %): Erythrocytes” value came out at 12% and the “Cell separation on whole blood (activity %): Leukocytes” value is listed as 84%.
For the compound “[^99mTc(2-Me-naphCS3)2(2-Me-naphCS2)] [Example 25]”, the “Yield (±3%) of cell labeling” value in the test with human blood came out at 96%. In addition, in the test with whole blood, the “Cell separation on whole blood (activity %): Polymorphprep” value is 4%, the “Cell separation on whole blood (activity %): Erythrocytes” value worked out at 10%, the “Cell separation on whole blood (activity %): Leukocytes” value is 85% and the “Cell separation on whole blood (activity %): Medium” value came to 1%.
Regarding `Oc1ccc(C(=S)S[S][99Tc]([S]SC(=S)c2ccc(O)cc2)[S]C(=S)c2ccc(O)cc2)cc1` [Example 17, [^99mTc(4-OHPhCS3)2(4-OHPhCS2)]], in the test on human blood, the “Yield (±3%) of cell labeling” value came out at 93%. Moreover, in the test with whole blood, the “Cell separation on whole blood (activity %): Polymorphprep” value is given as 1%, the “Cell separation on whole blood (activity %): Erythrocytes” value amounted to 12%, the “Cell separation on whole blood (activity %): Leukocytes” value worked out at 85% and the “Cell separation on whole blood (activity %): Medium” value came out at 2%.
As to “[^99mTc(2-Me-naphCS3)2(2-Me-naphCS2)] [Example 26]”, in the test with human blood, the “Yield (±3%) of cell labeling” value came to 85%. Further, in the test on whole blood, the “Cell separation on whole blood (activity %): Polymorphprep” value was found to be 2%, the “Cell separation on whole blood (activity %): Erythrocytes” value was found to be 15%, the “Cell separation on whole blood (activity %): Leukocytes” value turned out to be 79% and the “Cell separation on whole blood (activity %): Medium” value stood at 4%.
For `CCc1ccccc1C(=S)S[S][99Tc]([S]SC(=S)c1ccccc1CC)[S]C(=S)c1ccccc1CC` [Example 10, [^99mTc(2-EtPhCS3)2(2-EtPhCS2)]], the “Yield (±3%) of cell labeling” value in the test on human blood was 92%. In the test with whole blood, the “Cell separation on whole blood (activity %): Polymorphprep” value stood at 2%, the “Cell separation on whole blood (activity %): Erythrocytes” value turned out to be 22%, the “Cell separation on whole blood (activity %): Leukocytes” value is listed as 76% and the “Cell separation on whole blood (activity %): Medium” value was 2%.
